Tests used:
Experiment in all cases: microbe, parasite or virus in culture
Type in all cases: cell-based, HIV-1
[1] = system: NLRepRlucP373S recombinant wild type (WT) virus; conditions: Human immunodeficiency virus 1, MT2, read-out: WT EC50
Procedure, shortened: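 MT-2 cells infected with NLRepRlucP373S Renilla luciferase reporter virus (NL4-3, Gag P373S), inocula normalized by luciferase signal; compounds 3-fold serially diluted, 1% DMSO final. Virus yield read by Renilla luciferase after 4-5 days at 37 °C. EC50/EC90 from median effect equation; background = signal at NFV 3 μM.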

[2] = system: A364V site directed mutant virus; conditions: Human immunodeficiency virus 1, MT2, read-out: A364V EC50
Procedure, shortened: (§1)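 Multiple-cycle assay in MT-2 cells infected with Renilla luciferase NL4-3 (Gag P373S background) carrying site-directed Gag A364V or V370A/ΔT371 changes, inocula normalized by luciferase signal. 10,000 cells/well, 3-fold compound dilutions, 1% DMSO, 4–5 days at 37°C; yield read as Renilla luciferase.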

[3] = system: gag V370A/ΔT371 virus; conditions: Human immunodeficiency virus 1, MT2, read-out: V370A/ΔT371 EC50
Procedure, shortened: as §1

[4] = system: T332S/V362I/Pr R41G virus; conditions: Human immunodeficiency virus 1, MT2, read-out: T332S/V362I/pr41G EC50
Procedure, shortened: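 Renilla luciferase NL4-3 reporter virus (Gag P373S background) carrying Gag T332S/V362I plus protease R41G, inoculum normalized by luciferase signal, infected MT-2 cells (10,000/well). Compounds 3-fold diluted, 1% DMSO final. After 4–5 days at 37 °C, virus yield measured as Renilla luciferase activity in a multiple-cycle assay.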

C=C(C)[C@@H]1CC[C@]2(NCCN3CCS(=O)(=O)CC3)CC[C@]3(C)[C@H](CC[C@@H]4[C@@]5(C)CC=C(C6=CC[C@@](COc7ncccc7C(N)=O)(C(=O)O)CC6)C(C)(C)[C@@H]5CC[C@]43C)[C@@H]12 [Example 26, (S)-1-(((3-carbamoylpyridin-2-yl)oxy)methyl)-4-((1R,3aS,5aR,5bR,7aR,11aS,11bR,13aR,13bR)-3a-((2-(1,1-dioxidothiomorpholino)ethyl)amino)-5a,5b,8,8,11a-pentamethyl-1-(prop-1-en-2-yl)-2,3,3a,4,5,5a,5b,6,7,7a,8,11,11a,11b,12,13,13a,13b-octadecahydro-1H-cyclopenta[a]chrysen-9-yl)cyclohex-3-ene-1-carboxylic acid]
EC50 [1]: 5 nM
EC50 [2]: 28 nM
EC50 [3]: 41 nM
EC50 [4]: 41 nM

C=C(C)[C@@H]1CC[C@]2(NCCN3CCS(=O)(=O)CC3)CC[C@]3(C)[C@H](CC[C@@H]4[C@@]5(C)CC=C(C6=CCC(COc7cnnn7C(C)C)(C(=O)O)CC6)C(C)(C)[C@@H]5CC[C@]43C)[C@@H]12 (stereo partly drawn) [Example 17, 4-((1R,3aS,5aR,5bR,7aR,11aS,11bR,13aR,13bR)-3a-((2-(1,1-dioxidothiomorpholino)ethyl)amino)-5a,5b,8,8,11a-pentamethyl-1-(prop-1-en-2-yl)-2,3,3a,4,5,5a,5b,6,7,7a,8,11,11a,11b,12,13,13a,13b-octadecahydro-1H-cyclopenta[a]chrysen-9-yl)-1-(((1-isopropyl-1H-1,2,3-triazol-5-yl)oxy)methyl)cyclohex-3-ene-1-carboxylic acid]
EC50 [1]: 3 nM
EC50 [2]: > 50 nM
EC50 [3]: 15 nM
EC50 [4]: 15 nM

C=C(C)[C@@H]1CC[C@]2(NCCN3CCS(=O)(=O)CC3)CC[C@]3(C)[C@H](CC[C@@H]4[C@@]5(C)CC=C(C6=CCC(COc7nsc8ccccc78)(C(=O)O)CC6)C(C)(C)[C@@H]5CC[C@]43C)[C@@H]12 (stereo partly drawn) [Example 8]
EC50 [1]: < 50 nM
EC50 [2]: < 50 nM
EC50 [3]: < 50 nM
EC50 [4]: < 50 nM

C=C(C)[C@@H]1CC[C@]2(NCCN3CCS(=O)(=O)CC3)CC[C@]3(C)[C@H](CC[C@@H]4[C@@]5(C)CC=C(C6=CC[C@@](COc7cccc(F)n7)(C(=O)O)CC6)C(C)(C)[C@@H]5CC[C@]43C)[C@@H]12 [Example 29, (S)-4-((1R,3aS,5aR,5bR,7aR,11aS,11bR,13aR,13bR)-3a-((2-(1,1-dioxidothiomorpholino)ethyl)amino)-5a,5b,8,8,11a-pentamethyl-1-(prop-1-en-2-yl)-2,3,3a,4,5,5a,5b,6,7,7a,8,11,11a,11 b,12,13,13a,13b-octadecahydro-1H-cyclopenta[a]chrysen-9-yl)-1-(((6-fluoropyridin-2-yl)oxy)methyl)cyclohex-3-ene-1-carboxylic acid]
EC50 [1]: 5 nM
EC50 [2]: 5 nM
EC50 [3]: 21 nM
EC50 [4]: 21 nM

C=C(C)[C@@H]1CC[C@]2(NCCN3CCS(=O)(=O)CC3)CC[C@]3(C)[C@H](CC[C@@H]4[C@@]5(C)CC=C(C6=CCC(CCOc7cc(C(=O)O)ccn7)(C(=O)O)CC6)C(C)(C)[C@@H]5CC[C@]43C)[C@@H]12 (stereo partly drawn) [Example A23, 2-(2-(1-carboxy-4-((1R,3aS,5aR,5bR,7aR,11aS,11bR,13aR,13bR)-3a-((2-(1,1-dioxidothiomorpholino)ethyl)amino)-5a,5b,8,8,11a-pentamethyl-1-(prop-1-en-2-yl)-2,3,3a,4,5,5a,5b,6,7,7a,8,11,11a,11b,12,13,13a,13b-octadecahydro-1H-cyclopenta[a]chrysen-9-yl)cyclohex-3-en-1-yl)ethoxy)isonicotinic acid]
EC50 [1]: 7 nM
EC50 [2]: 333 nM
EC50 [3]: > 50 nM
EC50 [4]: 193 nM

C=C(C)[C@@H]1CC[C@]2(NCCN3CCS(=O)(=O)CC3)CC[C@]3(C)[C@H](CC[C@@H]4[C@@]5(C)CC=C(C6=CCC(CCOc7cc(OC)ccn7)(C(=O)O)CC6)C(C)(C)[C@@H]5CC[C@]43C)[C@@H]12 (stereo partly drawn) [Example A32, 4-((1R,3aS,5aR,5bR,7aR,11aS,11bR,13aR,13bR)-3a-((2-(1,1-dioxidothiomorpholino)ethyl)amino)-5a,5b,8,8,11a-pentamethyl-1-(prop-1-en-2-yl)-2,3,3a,4,5,5a,5b,6,7,7a,8,11,11a,11b,12,13,13a,13b-octadecahydro-1H-cyclopenta[a]chrysen-9-yl)-1-(2-((4-methoxypyridin-2-yl)oxy)ethyl)cyclohex-3-ene-1-carboxylic acid]
EC50 [1]: 6 nM
EC50 [2]: > 50 nM
EC50 [3]: > 50 nM
EC50 [4]: 419 nM

C=C(C)[C@@H]1CC[C@]2(NCCN3CCS(=O)(=O)CC3)CC[C@]3(C)[C@H](CC[C@@H]4[C@@]5(C)CC=C(C6=CC[C@@](COc7cc(C(N)=O)ccn7)(C(=O)O)CC6)C(C)(C)[C@@H]5CC[C@]43C)[C@@H]12 [Example 30, (S)-1-(((4-carbamoylpyridin-2-yl)oxy)methyl)-4-((1R,3aS,5aR,5bR,7aR,11aS,11bR,13aR,13bR)-3a-((2-(1,1-dioxidothiomorpholino)ethyl)amino)-5a,5b,8,8,11a-pentamethyl-1-(prop-1-en-2-yl)-2,3,3a,4,5,5a,5b,6,7,7a,8,11,11a,11b,12,13,13a,13b-octadecahydro-1H-cyclopenta[a]chrysen-9-yl)cyclohex-3-ene-1-carboxylic acid]
EC50 [1]: < 50 nM
EC50 [2]: < 50 nM
EC50 [3]: < 50 nM
EC50 [4]: < 50 nM

C=C(C)[C@@H]1CC[C@]2(NCCN3CCS(=O)(=O)CC3)CC[C@]3(C)[C@H](CC[C@@H]4[C@@]5(C)CC=C(C6=CCC(CCOc7ccnc(Cl)c7)(C(=O)O)CC6)C(C)(C)[C@@H]5CC[C@]43C)[C@@H]12 (stereo partly drawn) [Example A35, 1-(2-((2-chloropyridin-4-yl)oxy)ethyl)-4-((1R,3aS,5aR,5bR,7aR,11aS,11bR,13aR,13bR)-3a-((2-(1,1-dioxidothiomorpholino)ethyl)amino)-5a,5b,8,8,11a-pentamethyl-1-(prop-1-en-2-yl)-2,3,3a,4,5,5a,5b,6,7,7a,8,11,11a,11b,12,13,13a,13b-octadecahydro-1H-cyclopenta[a]chrysen-9-yl)cyclohex-3-ene-1-carboxylic acid]
EC50 [1]: < 50 nM
EC50 [2]: 233 nM
EC50 [3]: 3000 nM
EC50 [4]: > 50 nM

C=C(C)[C@@H]1CC[C@]2(NCCN3CCS(=O)(=O)CC3)CC[C@]3(C)[C@H](CC[C@@H]4[C@@]5(C)CC=C(C6=CCC(CCOc7ncccc7C)(C(=O)O)CC6)C(C)(C)[C@@H]5CC[C@]43C)[C@@H]12 (stereo partly drawn) [Example A28, 4-((1R,3aS,5aR,5bR,7aR,11aS,11bR,13aR,13bR)-3a-((2-(1,1-dioxidothiomorpholino)ethyl)amino)-5a,5b,8,8,11a-pentamethyl-1-(prop-1-en-2-yl)-2,3,3a,4,5,5a,5b,6,7,7a,8,11,11a,11b,12,13,13a,13b-octadecahydro-1H-cyclopenta[a]chrysen-9-yl)-1-(2-((3-methylpyridin-2-yl)oxy)ethyl)cyclohex-3-ene-1-carboxylic acid]
EC50 [1]: < 50 nM
EC50 [2]: > 50 nM
EC50 [3]: 68 nM
EC50 [4]: 68 nM

— patent publication US10421774B2 (priority 2016, dated 2019)
